# Publication PMC7830597, “Derivatives of Tenuazonic Acid as Potential New Multi-Target Anti-Alzheimer’s Disease Agents” (Biomolecules, 2021)
# Marks after values point to notes of the source that are not given here.
# Legend:
# Type in all cases: physicochemical
# [1] = Metal complexation, Fe(III)/L system; conditions: for log β(FemHhLl): spectrophotometric, 15% w/w DMSO/water
# Description: (§1) The chelating ability of compound 1 towards Fe(III), Cu(II) and Zn(II) was evaluated through the determination of the global formation constants of the complexes via pH-potentiometric and spectrophotometric titrations of the respective 1:1, 1:2 and 1:3 M/L systems in 15% w/w DMSO/water. The fitting analysis of the respective pH-potentiometric curves was done via Hyperquad 2008 [36] while that of the spectrophotometric absorption spectra was performed using Psequad, and the found equilibrium models are presented in Table 2. Compound 1 was chosen because of its better profile after preliminary assays (i.e., good AChE inhibition and antioxidant activity, as well as good ability to inhibit Cu^2+-induced Aβ aggregation).
# (§2) To the best of our knowledge, the determination of stability formation constants of the complexes with TA has not yet been done and so the herein calculated values for compound 1 cannot be compared with those from the literature. The metal complexation equilibrium models of compound 1 were determined by the following process: for the Fe/L and Cu/L systems, only spectrophotometric data was used due to the better quality of the experimental results obtained [the 1:1 titration (e.g., Figure 7)] allowed the determination of the stability constant corresponding to the ML species and then this value, as well as the respective spectra, was introduced in the fitting of Fe/L 1:3 or Cu/L 1:2 data]; for the Zn/L system, potentiometric data was used. For the found metal complex models contained in Table 2, MH-2L, MH-1L2 and MH-2L2 correspond to mixed ligand-hydroxo metal complexes.
# (§3) Titrations of the selected compound 1, alone or in the presence of the metal ions, were accomplished in a 15% w/w DMSO/H2O medium, at T = 25.0 ± 0.1 °C and ionic strength (I) 0.1 M KCl, by using 0.1 M KOH as titrant. Both glass and Ag/AgCl reference electrodes were previously conditioned in different DMSO/H2O mixtures of increasing DMSO % composition and the response of the glass electrode was evaluated by strong acid–strong base (HCl/KOH) calibrations with the determination of the Nernst parameters by Gran’s method. […] The spectrophotometric measurements were carried out in a 250–320 nm wavelength range at pH ca 2.5-8.0. Under the stated experimental conditions, the pKw value (13.6) was determined and subsequently used in the computations. The stepwise protonation constants of the ligands, Ki = [HiL]/[Hi-1L][H], and the overall metal–complex stability constants, β (MmHhL1) = [MmHhLl]/[M]^m[H]^h[L]^l, were calculated by fitting the pH-potentiometric and spectrophotometric data with, respectively, Hyperquad 2008 [36] and Psequad programs. The metal hydrolysis model was determined under the defined experimental conditions (I = 0.1 M KCl, 15% w/w DMSO/H2O, T = 25.0 ± 0.1 °C) and the following values of stability constants were included in the fitting of the experimental data towards the equilibrium models related to the Fe(III)/L, Cu(II)/L and Zn(II)/L systems: log β (FeH-1) = −1.79, log β (FeH-2) = −4.9, log β (FeH-4) = −20.0; log β (Cu2H-2) = −9.5; log β (ZnH-1) = −8.6, log β (ZnH-3) = −27.2, log β (Zn2H-1) = −8.6. The species distribution curves were obtained with the Hyss program.
# [2] = Metal complexation, Cu(II)/L system; conditions: for log β(CumHhLl): spectrophotometric, 15% w/w DMSO/water
# Description: as §1, §2, §3
# [3] = Metal complexation, Zn(II)/L system; conditions: for log β(ZnmHhLl): potentiometric, 15% w/w DMSO/water
# Description: as §1
# as §2, with “For the found metal complex models contained in Table 2, MH-2L, MH-1L2 and MH-2L2 correspond to mixed ligand-hydroxo metal complexes.” left out
# Titrations of the selected compound 1, alone or in the presence of the metal ions, were accomplished in a 15% w/w DMSO/H2O medium, at T = 25.0 ± 0.1 °C and ionic strength (I) 0.1 M KCl, by using 0.1 M KOH as titrant. Both glass and Ag/AgCl reference electrodes were previously conditioned in different DMSO/H2O mixtures of increasing DMSO % composition and the response of the glass electrode was evaluated by strong acid–strong base (HCl/KOH) calibrations with the determination of the Nernst parameters by Gran’s method. […]
# [4] = Solubility in water
# [5] = pH 7.4, CL/CM = 10, CM = 10^−6 M
smiles,measurement,setting,value
"CCOC(=O)C1=C(O)C(C(C)C)NC1=O (centres unmarked) [Compound 1, Ethyl 4-hydroxy-5-isopropyl-2-oxo-2,5-dihydro-1H-pyrrole-3-carboxylate]",pFe (pM = −log[M]),[1]; [5],16.6
same,log β(FemHhLl),[1]; species (1-22),5.83(8) ^d
same,log β(FemHhLl),[1]; species (101),9.46(7) ^d
same,log β(FemHhLl),[1]; species (102),14.30(7) ^d
same,log β(FemHhLl),[1]; species (103),19.4(1) ^d
same,Kd,"[2]; calculated at pH 7.4, read-out: conditional dissociation constant (K’d) for the copper complex",83 µM
same,pCu (pM = −log[M]),[2]; [5],11.6
same,log β(CumHhLl),[2]; species (1-12),6.56(6) ^d
same,log β(CumHhLl),[2]; species (1-21),−4.15(7) ^d
same,log β(CumHhLl),[2]; species (101),4.08(8) ^d
same,pZn (pM = −log[M]),[3]; [5],6.0
same,log β(ZnmHhLl),[3]; species (1-21),−11.75(5) ^c
same,log β(ZnmHhLl),[3]; species (101),3.16(8) ^c
same,solubility in water,[4],insoluble in water
